Assay results reported in patent publication US9387197B2, “Methods for treating conditions such as dystonia and post-stroke spasticity with clonidine” (Warsaw Orthopedic, Inc., priority 2008, dated 2016).

Test system: Rat Chronic Constriction Injury Model
Details: FIG. 4; days 8-64
Protocol: A 2-month chronic constriction injury (CCI) model of neuropathic pain was used to evaluate different formulations of clonidine encapsulated in bioerodible polymers compared to clonidine given subcutaneously (SC). Different formulations as provided in Table 5 below were evaluated for reducing pain-associated behaviors: Thermal paw withdrawal latency was evaluated at baseline, 7, 14, 21, 28, 35, 42, 49, 56 and 64 days post-operatively, while mechanical threshold was evaluated at 8, 15, 22, 29, 36, 43, 50, 57 and 64 days post-operatively.
The inventors evaluated the efficacy of a five month Clonidine/Polymer Drug Depot in the Rat Chronic Constriction Injury Model. The animal model was the Bennett Model (Wistar rat). The purpose: To determine whether a five month polymer clonidine-eluting depot can improve pain associated behavioral responses in a rat model of neuropathic pain.
Experimental Design: Four loose chromic gut ligatures, 1 mm apart, were tied around the common sciatic nerve at mid-thigh. Each animal received treatment of a test or control article according to the dosing described in Table 5.
The inventors have conducted the present study for a period of 64 days and have employed the following two tests: (1) the Hargreaves test; and (2) the von Frey test. […]

Compound: Clc1cccc(Cl)c1N=C1NCCN1 [clonidine, 2,6-dichloro-N-2-imidazolidinyldenebenzenamine]
- pain behavioral response, mechanical threshold (mechanical allodynia), compared to unloaded polymer depots: reduced the behavioral response
